Each block holds one molecule with its values, some of them ahead of it.
Key:
total cholesterolaemia = assay: Test B: total cholesterolaemia, in vivo, in the rat treated intravenously with triton WR 1339; settings: iv
[1] = tested on: hepatic 14C-cholesterogenesis; assay: Test A: hepatic 14C-cholesterogenesis, in vivo, in the rat
From the text: Test A: Measurement of hepatic ^14 C-cholesterogenesis, in vivo, in the rat according to the method described by Bucher et al., J Biol. Chem., 222, 1-15, 1956 and Alberts et al., Proc. Natl. Acad. Sci. USA, 77 (7), 3957-3961, 1980.

TXA2 receptors = target: T1, TXA2 receptors (Cavia porcellus, UniProt A0A286Y4I8); assay: Test C: platelet aggregation induced by an agonist of TXA2 receptors (U 46619), in vitro, platelet-rich plasma; assay type: cell-based; settings: guinea pig platelet-rich plasma, U 46619 20 nM, 37° C.
T1 construct: platelet-rich plasmas (PRP) are prepared by aortic punction of anaesthetized animals; endogenous in cells; host or cells: guinea pig platelets in platelet-rich plasma
T1 sequence (A0A286Y4I8 1-347): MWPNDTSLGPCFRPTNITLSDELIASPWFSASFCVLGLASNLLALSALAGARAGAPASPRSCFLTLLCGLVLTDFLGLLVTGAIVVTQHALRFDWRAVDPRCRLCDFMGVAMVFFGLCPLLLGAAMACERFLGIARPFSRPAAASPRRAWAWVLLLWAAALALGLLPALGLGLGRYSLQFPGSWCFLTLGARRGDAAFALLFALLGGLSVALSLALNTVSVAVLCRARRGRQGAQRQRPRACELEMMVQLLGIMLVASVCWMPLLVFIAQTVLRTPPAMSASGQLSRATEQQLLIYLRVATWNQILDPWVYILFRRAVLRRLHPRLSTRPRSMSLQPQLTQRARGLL
Description: Test C: Measurement of platelet aggregation induced by an agonist of TXA2 receptors, in the guinea pig in the following manner: platelet-rich plasmas (PRP) are prepared by aortic punction of anaesthetized animals; the blood (9 vol.) is collected onto a 106 mM solution of trisodium citrate (1 vol.) to prevent coagulation. The PRPs are isolated by slow centrifuging (10 min, 380 g), and left to incubate for at least 3 min (37° C., with slow stirring) in an aggregometer of the Chronolog-400 type. The platelet aggregation is induced by addition of a direct agonist of the TXA2 receptors, such as, for example, the compound known by the code name U 46619 (at a concentration of 20 nM) according to Malmstein, Life Sci., 18, 169-178, 1976; the compounds of the invention are tested "in vitro".

SMILES: CC[C@H](C)C(=O)O[C@H]1C[C@@H](C)C=C2C=C[C@H](C)[C@H](CC[C@@H]3C[C@@H](O)CC(=O)O3)[C@H]21 [Lovastatine, reference compound]
ED25 (total cholesterolaemia): 130 mg/kg | ED50 [1]: 0.39 mg/kg

SMILES: COC(=O)C[C@H](O)C[C@H](O)/C=C/C1=C(c2ccccc2)c2ccccc2CC1(C)C (relative stereo) [Compound No. 2, (+,-)Methyl 6E-erythro-7-(1,2-dihydro-2,2-dimethyl-4-phenyl-3-naphthyl)-3,5-dihydroxyhept-6-enoate]
ED25 (total cholesterolaemia): 100 mg/kg | ED50 [1]: 0.6 mg/kg

IC50 (TXA2 receptors): 91 µM
SMILES: CCOC(=O)C[C@H](O)C[C@H](O)/C=C/C1=C(c2ccc(F)cc2)c2ccccc2OC12CCCC2 (relative stereo) [Compound No. 1, (+,-)Ethyl 6E-erythro-7-(4-(4-fluorophenyl)-3-spiro(2,1'-cyclopentyl-2H-1-benzopyran))-3,5-dihydroxyhepten-6-oate]
ED25 (total cholesterolaemia): 29 mg/kg | ED50 [1]: 0.17 mg/kg

SMILES: O=C(O)C[C@H](O)C[C@H](O)/C=C/C1=C(c2ccccc2)c2ccccc2SC12CCCC2 (relative stereo) [Compound No. 65, (+,-)Sodium 6E-erythro-3,5-dihydroxy-7-(4-phenyl-3-spiro(2,1'-cyclopentyl-2H-1-benzothiapyran))hept-6-enoate]
ED25 (total cholesterolaemia): 74 mg/kg | ED50 [1]: 0.38 mg/kg

IC50 (TXA2 receptors): 28 µM
SMILES: CCOC(=O)C[C@H](O)C[C@H](O)/C=C/C1=C(c2ccc(Cl)cc2)c2ccccc2OC12CCCC2 (relative stereo) [Compound No. 19, (+,-)Ethyl 6E-erythro-7-(4-(4-chlorophenyl)-3-spiro(2,1'-cyclopentyl-2H-1-benzopyran))-3,5-dihydroxyhept-6-enoate]
ED25 (total cholesterolaemia): 110 mg/kg | ED50 [1]: 0.09 mg/kg
